For one experiment, the target named is T1, hT1R1/hT1R3 umami receptor (Homo sapiens, UniProt Q7RTX0+Q7RTX1).
T1 construct: expressed in transfected cells; host or cells: HEK293 derivative stably expressing Gα15, clone I-17, expression induced with mifepristone
T1 sequence (Q7RTX1 21-841): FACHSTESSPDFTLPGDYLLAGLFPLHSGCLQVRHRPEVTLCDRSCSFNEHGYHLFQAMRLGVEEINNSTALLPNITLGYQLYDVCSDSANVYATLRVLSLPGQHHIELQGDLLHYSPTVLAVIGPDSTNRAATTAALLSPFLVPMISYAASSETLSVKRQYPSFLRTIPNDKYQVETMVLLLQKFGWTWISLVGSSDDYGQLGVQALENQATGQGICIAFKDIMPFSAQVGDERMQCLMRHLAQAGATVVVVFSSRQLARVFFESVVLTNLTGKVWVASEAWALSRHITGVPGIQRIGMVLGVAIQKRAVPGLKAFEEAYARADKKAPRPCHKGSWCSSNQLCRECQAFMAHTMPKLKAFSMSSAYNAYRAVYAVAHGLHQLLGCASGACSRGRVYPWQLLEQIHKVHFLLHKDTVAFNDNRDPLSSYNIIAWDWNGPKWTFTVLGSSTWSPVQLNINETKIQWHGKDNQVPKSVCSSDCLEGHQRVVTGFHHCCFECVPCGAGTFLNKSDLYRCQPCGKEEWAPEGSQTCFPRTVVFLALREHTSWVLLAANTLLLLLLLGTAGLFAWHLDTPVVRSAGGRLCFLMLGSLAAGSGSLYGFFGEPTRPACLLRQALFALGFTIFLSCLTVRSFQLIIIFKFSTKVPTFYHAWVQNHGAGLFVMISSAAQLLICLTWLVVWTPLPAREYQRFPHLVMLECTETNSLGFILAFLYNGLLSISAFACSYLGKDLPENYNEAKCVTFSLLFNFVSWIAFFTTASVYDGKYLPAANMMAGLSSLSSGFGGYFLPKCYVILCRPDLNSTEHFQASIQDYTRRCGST
T1 sequence (Q7RTX0 21-852): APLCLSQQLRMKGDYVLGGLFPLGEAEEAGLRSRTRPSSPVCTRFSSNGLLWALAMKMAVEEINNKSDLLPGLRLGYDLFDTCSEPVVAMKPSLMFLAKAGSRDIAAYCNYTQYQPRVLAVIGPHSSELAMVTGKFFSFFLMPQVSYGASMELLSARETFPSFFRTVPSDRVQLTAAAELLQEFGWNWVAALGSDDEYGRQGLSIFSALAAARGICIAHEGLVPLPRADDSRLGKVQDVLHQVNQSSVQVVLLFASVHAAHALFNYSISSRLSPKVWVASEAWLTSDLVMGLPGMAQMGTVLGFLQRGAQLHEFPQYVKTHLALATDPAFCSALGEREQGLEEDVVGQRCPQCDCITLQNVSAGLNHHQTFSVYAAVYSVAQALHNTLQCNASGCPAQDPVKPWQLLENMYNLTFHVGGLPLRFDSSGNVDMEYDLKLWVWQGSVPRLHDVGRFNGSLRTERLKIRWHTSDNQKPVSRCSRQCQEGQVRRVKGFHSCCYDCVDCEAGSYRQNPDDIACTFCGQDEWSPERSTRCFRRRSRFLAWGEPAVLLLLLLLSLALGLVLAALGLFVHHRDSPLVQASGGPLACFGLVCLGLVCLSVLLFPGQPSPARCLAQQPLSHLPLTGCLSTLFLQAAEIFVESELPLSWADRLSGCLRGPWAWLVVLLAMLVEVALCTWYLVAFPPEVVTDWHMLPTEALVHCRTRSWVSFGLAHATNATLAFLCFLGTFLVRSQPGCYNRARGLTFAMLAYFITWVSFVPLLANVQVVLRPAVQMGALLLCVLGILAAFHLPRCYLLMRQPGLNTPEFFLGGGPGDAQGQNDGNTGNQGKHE
Put plainly: In vitro hT1R1/hT1R3 umami taste receptor activation assay (FLIPR, dose response). In kind it is cell-based. Particulars: Table A, Umami Amides; read-out: Umami EC50.
On to `CCCCC(CCCC)NC(=O)c1ccc2c(c1)OCO2` [Example A41, N-(nonan-5-yl)benzo[d][1,3]dioxole-5-carboxamide], for which the EC50 is 700 nM.

For `CCCC(CCC)NC(=O)c1ccc(Br)o1` [Example A30, 5-bromo-N-(heptan-4-yl)furan-2-carboxamide], the EC50 is 490 nM.

For `CCCC(CCC)NC(=O)c1cc(COC)c(CC)o1` [Example A117, 5-ethyl-N-(heptan-4-yl)-4-(methoxymethyl)furan-2-carboxamide], the EC50 was found to be 30 nM.

Take `CCCC(CC(C)C)NC(=O)c1ccc2oc(C)nc2c1` (stereo not shown) [Example A23, 2-methyl-N-(2-methylheptan-4-yl)benzo[d]oxazole-5-carboxamide]: the EC50 was found to be 380 nM.

As to `CCCC(CCC)NC(=O)c1ccc2ncoc2c1` [Example A29, N-(heptan-4-yl)benzo[d]oxazole-6-carboxamide], the EC50 turned out to be 1910 nM.

Regarding `CSc1ccc(C(=O)NC(C(C)C)C(C)C)cc1C` [Example A88, N-(2,4-dimethylpentan-3-yl)-3-methyl-4-(methylthio)benzamide], the EC50 was found to be 550 nM.

`COC(=O)[C@H](NC(=O)c1ccc(C)c(C)c1)C(C)C` [Example A62, (R)-methyl 2-(3,4-dimethylbenzamido)-3-methylbutanoate]: the EC50 turned out to be 250 nM.

Consider `COc1ccc(CNC(=O)c2ccncc2-n2cccc2)c(OC)c1` [Example A66, N-(2,4-dimethoxybenzyl)-3-(1H-pyrrol-1-yl)isonicotinamide], for which the EC50 is 290 nM.

In the case of `COC(=O)[C@@H](CC(C)C)NC(=O)c1ccc2ccccc2c1` [Example A40, (R)-methyl 2-(2-naphthamido)-4-methylpentanoate], the EC50 was found to be 370 nM.

`COC(=O)[C@@H](CC(C)C)NC(=O)c1cc(C)cc(C)c1` [Example A85, (R)-methyl 2-(3,5-dimethylbenzamido)-4-methylpentanoate]: the EC50 worked out at 530 nM.

Take `COc1cccc(C(=O)NC2CCCc3ccccc32)c1O` (stereo not shown) [Example A87, 2-hydroxy-3-methoxy-N-(1,2,3,4-tetrahydronaphthalen-1-yl)benzamide]: the EC50 was determined as 540 nM.

As to `CCOc1ccc(C(=O)NC(CC)CC)cc1C` [Example A64, 4-ethoxy-3-methyl-N-(pentan-3-yl)benzamide], the EC50 was 260 nM.

`CCCC(CCC)NC(=O)c1ccc2c(c1)CCO2` [Example A52, N-(heptan-4-yl)-2,3-dihydrobenzofuran-5-carboxamide]: the EC50 is 1650 nM.

In the case of `COC[C@@H](CC(C)C)NC(=O)c1ccc(SC)c(C)c1` [Example A65, (R)-N-(1-methoxy-4-methylpentan-2-yl)-3-methyl-4-(methylthio)benzamide], the EC50 was 290 nM.

Regarding `CCCC(CC)NC(=O)c1ccc(C)c(SC)c1` (stereo not shown) [Example A81, N-(hexan-3-yl)-4-methyl-3-(methylthio)benzamide], the EC50 was 500 nM.

Turning to `CCCC(CC)NC(=O)c1ccc(C)c(C)c1` (stereo not shown) [Example A56, N-(hexan-3-yl)-3,4-imethylbenzamide], the EC50 worked out at 140 nM.

Consider `COC(=O)c1ccc(NC(=O)c2c(Cl)ccc(Cl)c2OC)cc1` [Example A2, 4-(3,6-Dichloro-2-methoxy-benzoylamino)-benzoic acid methyl ester], for which the EC50 stood at 930 nM.

As for `CCC(CC)NC(=O)c1cc2ccccc2o1` [Example A21, N-(pentan-3-yl)benzofuran-2-carboxamide], the EC50 is 1520 nM.

Turning to `Cc1ccc(C(=O)NC2CCCc3ccccc32)s1` (stereo not shown) [Example A39, 5-Methyl-thiophene-2-carboxylic acid (1,2,3,4-tetrahydro-naphthalen-1-yl) amide], the EC50 came to 1310 nM.

Consider `CCC(CC(C)C)NC(=O)c1cc2cc(C)ccc2o1` (stereo not shown) [Example A8, 5-methyl-N-(5-methylhexan-3-yl)benzofuran-2-carboxamide], for which the EC50 is 500 nM.

Still in this experiment, the particulars now being: Table B, Umami Oxalamides; read-out: Umami EC50.
As for `Cc1c(CNC(=O)C(=O)NCCc2ccccn2)sc2ccccc12` [Example B3], the EC50 is 810 nM.

The same experiment, now with this note: Table C, Umami Ureas; read-out: Umami EC50.
Regarding `CCCC(CCC)NC(=O)Nc1ccccc1Cl` [Example C1, 1-(2-chlorophenyl)-3-(heptan-4-yl)urea], the EC50 came to 370 nM.

As to `COc1cc(C)ccc1NC(=O)NC(C(C)C)C(C)C` [Example C16, 1-(2,4-dimethylpentan-3-yl)-3-(2-methoxy-4-methylphenyl)urea], the EC50 came to 210 nM.

With `CCCC(CCC)NC(=O)Nc1ccccc1F` [Example C4, 1-(2-fluorophenyl)-3-(heptan-4-yl)urea], the EC50 amounted to 790 nM.

The same experiment, now with this note: read-out: EC50 for activation of a hT1R1/hT1R3 umami receptor expressed in an HEK293 cell line.
For the molecule `COC(=O)[C@@H](CC(C)C)NC(=O)c1ccc(OC)c(Cl)c1` [Example 62, (R)-methyl 2-(3-chloro-4-methoxybenzamido)-4-methylpentanoate], the EC50 was 80 nM.

For the molecule `CCCC(CC(C)C)NC(=O)c1ccc(OC)c(C)c1` (stereo not shown) [Example 52, 4-methoxy-3-methyl-N-(2-methylheptan-4-yl)benzamide], the EC50 was found to be 100 nM.

In the case of `CCC(CC)NC(=O)c1ccc(OC)c(C)c1` [Example 119, 4-methoxy-3-methyl-N-(pentan-3-yl)benzamide], the EC50 amounted to 400 nM.

On to `CCCCC/C=C/C(=O)N[C@H](CC(C)C)C(=O)OC` [Example 78, (R,E)-methyl 4-methyl-2-oct-2-enamidopentanoate], for which the EC50 stood at 920 nM.

On to `O=C(NC1CCc2ccccc21)c1ccc2c(c1)OCO2` (stereo not shown) [Example 118, Benzo[1,3]dioxole-5-carboxylic acid indan-1-ylamide], for which the EC50 amounted to 1200 nM.

On to `O=C(NCCc1ccccn1)C(=O)NCc1ccc2occc2c1` [Example 140, N-(Benzofuran-5-ylmethyl)-N′-(2-(pyridin-2-yl)ethyl)oxalamide], for which the EC50 is 1780 nM.

For the molecule `CC(=O)Oc1ccccc1CNC(=O)C(=O)NCCc1ccccn1` [Example 142], the EC50 was determined as 8500 nM.

Regarding `O=C(NCc1ccc(OC(F)(F)F)cc1)c1ccsc1` [Example 107, Thiophene-3-carboxylic acid 4-trifluoromethoxy-benzylamide], the EC50 was 2200 nM.

As for `CCCC(CCC)NC(=O)c1ccc(Cl)c(C)c1` [Example 64, 4-Chloro-3-methyl-N-(1-propyl-butyl)-benzamide], the EC50 was found to be 800 nM.

`CCCC(CCC)NC(=O)c1ccc(C)c(C)n1` [Example 91, N-(heptan-4-yl)-5,6-dimethylpicolinamide]: the EC50 amounted to 2800 nM.

Consider `CCCC(NC(=O)c1ccc2c(c1)OCO2)C(C)C` (stereo not shown) [Example 3, N-(2-methylhexan-3-yl)benzo[d][1,3]dioxole-5-carboxamide], for which the EC50 amounted to 610 nM.

With `CCCC(CCC)NC(=O)c1nccc2ccccc12` [Example 103, N-(heptan-4-yl)isoquinoline-1-carboxamide], the EC50 was determined as 14200 nM.

As for `CCC(CC)NC(=O)c1ccc(OC)c(Cl)c1` [Example 61, 3-chloro-4-methoxy-N-(pentan-3-yl)benzamide], the EC50 was 560 nM.

On to `CCOc1ccc(/C=C/C(=O)NC(CC)CC)cc1` [Example 82, 3-(4-Ethoxy-phenyl)-N-(1-ethyl-propyl)-acrylamide], for which the EC50 is 1350 nM.

For the molecule `Cc1ccccc1CNC(=O)C(=O)NCCc1ccccn1` [Example 145], the EC50 amounted to 590 nM.

Turning to `COC(=O)[C@@H](CC(C)C)NC(=O)c1ccc(C)c(SC)c1` [Example 49, (R)-methyl 4-methyl-2-(4-methyl-3-(methylthio)benzamido)pentanoate], the EC50 amounted to 100 nM.

These data come from patent US20060045953A1 (priority 2004, published 2006).
